Test results reported in patent publication US11858919B2, “HDAC1,2 inhibitors” (REGENACY PHARMACEUTICALS, LLC, priority 2018, dated 2024).
Read-outs that look alike come from different tables or passages of the source.

How the values were obtained:
[1] = molecular target: T1, HDAC3 (Homo sapiens, UniProt O15379); experiment: HDAC enzyme assay, HDAC3 (fluorescence, tripeptide substrate/trypsin); format: biochemical; conditions: 0.08 ng/ml enzyme, 17 μM substrate, 10 min preincubation
T1 construct: purchased BPS Biosciences
Method: (§1) Compounds for testing were diluted in […] to 50 fold the final concentration and a ten-point three-fold dilution series was made. The compounds were diluted in assay buffer (50 mM HEPES, pH 7.4, 100 mM KCl, 0.001% Tween-20, 0.05% BSA, 20 μM TCEP) to 6-fold their final concentration. The HDAC enzymes (purchased from BPS Biosciences) were diluted to 1.5-fold their final concentration in assay buffer. The tripeptide substrate and trypsin at 0.05 μM final concentration were diluted in assay buffer at 6-fold their final concentration. The final enzyme concentrations used in these assays were 3.3 ng/ml (HDAC1), 0.2 ng/ml (HDAC2) and 0.08 ng/ml (HDAC3). The final substrate concentrations used were 16 μM (HDAC1), 10 μM (HDAC2) and 17 μM (HDAC3).
(§2) Five μl of compounds and 20 μl of enzyme were added to wells of a black, opaque 384 well plate in duplicate. Enzyme and compound were incubated together at room temperature for 10 minutes. Five μl of substrate was added to each well, the plate was shaken for 60 seconds and placed into a Victor 2 microtiter plate reader. The development of fluorescence was monitored for 60 min and the linear rate of the reaction was calculated. The IC50 was determined using Graph Pad Prism by a four parameter curve fit.

[2] = Pharmacokinetics in male SD rats (cassette dosing, IV and PO), plasma level by LC/MS/MS; format: in vivo; conditions: male SD rat; for bioavailability: dose adjusted PO AUC (5 mg/kg) to IV AUC (1 mg/kg), read-out: F % (oral bioavailability); for CL renal: read-out: IV Clr.
Method: Male SD rats were fasted overnight. Compounds of the invention were dissolved in dimethyl acetamide at 10 times the final concentration, then Solutol HS 15 (BASF) was added to a final concentration of 10%. Finally, 80% saline was added and vortexed to achieve a clear solution. For the IV dosing three animals were injected via the foot dorsal vein with 1 mg/kg compound. For the PO dosing 5 mg/kg of compound was delivered by oral gavage. Blood was collected via the tail vein into K2EDTA tubes at 5 minutes, 15 minutes, 30 minutes, 1 hour, 2 hours, 4 hours, 8 hours and 24 hours after dosing. The blood was centrifuged at 2000 g for 5 minutes at 4° C. to obtain plasma. The plasma was extracted with acetonitrile and the level of compound was analyzed by LC/MS/MS. The level of compound in plasma was calculated from a standard curve in rat plasma. The IV clearance (L/h/kg) and area under the curve (h*ng/mL) were calculated using WinNonLin software. The dose adjusted area under the curve for the IV and oral dosing were used to calculate the oral bioavailability.
Pharmacokinetic properties were assessed in a rat cassette dosing experiment. The IV clearance (IV Clr.) is in units of L/hr/kg. The oral maximum plasma concentration (PO Cmax) is in units of ng/ml. The oral plasma half-life (PO T½) is in units of hours. The oral area under the curve (PO AUC) is in units of hours*ng/ml. The fraction absorbed by the oral route (F %) is a percentage of the oral area under the curve to the IV area under the curve, dose adjusted.

[3] = molecular target: T2, HDAC2 (Homo sapiens, UniProt Q92769); experiment: HDAC enzyme assay, HDAC2 (fluorescence, tripeptide substrate/trypsin); format: biochemical; conditions: 0.2 ng/ml enzyme, 10 μM substrate, 10 min preincubation
T2 construct: purchased BPS Biosciences
Method: as §1, §2

[4] = molecular target: T3, HDAC1 (Homo sapiens, UniProt Q13547); experiment: HDAC enzyme assay, HDAC1 (fluorescence, tripeptide substrate/trypsin); format: biochemical; conditions: 3.3 ng/ml enzyme, 16 μM substrate, 10 min preincubation
T3 construct: purchased BPS Biosciences
Method: as §1, §2

[5] = PO 5 mg/kg oral gavage, read-out: PO AUC
[6] = PO 5 mg/kg oral gavage, read-out: PO t1/2

T2 sequence (Q92769 whole entry): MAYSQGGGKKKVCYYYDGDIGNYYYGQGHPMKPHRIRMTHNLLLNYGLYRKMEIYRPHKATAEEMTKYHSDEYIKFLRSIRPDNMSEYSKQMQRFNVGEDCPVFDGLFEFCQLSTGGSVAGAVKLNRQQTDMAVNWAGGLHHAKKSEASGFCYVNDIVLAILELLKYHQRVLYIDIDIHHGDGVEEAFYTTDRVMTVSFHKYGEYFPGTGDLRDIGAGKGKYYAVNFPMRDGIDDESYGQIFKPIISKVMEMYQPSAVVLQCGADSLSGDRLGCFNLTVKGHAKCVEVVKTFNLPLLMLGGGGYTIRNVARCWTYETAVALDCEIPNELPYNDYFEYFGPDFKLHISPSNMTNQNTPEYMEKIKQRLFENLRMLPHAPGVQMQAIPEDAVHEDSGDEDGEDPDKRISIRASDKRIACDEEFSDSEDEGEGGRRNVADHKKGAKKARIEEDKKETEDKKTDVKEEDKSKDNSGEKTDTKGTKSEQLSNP
T1 sequence (O15379 whole entry): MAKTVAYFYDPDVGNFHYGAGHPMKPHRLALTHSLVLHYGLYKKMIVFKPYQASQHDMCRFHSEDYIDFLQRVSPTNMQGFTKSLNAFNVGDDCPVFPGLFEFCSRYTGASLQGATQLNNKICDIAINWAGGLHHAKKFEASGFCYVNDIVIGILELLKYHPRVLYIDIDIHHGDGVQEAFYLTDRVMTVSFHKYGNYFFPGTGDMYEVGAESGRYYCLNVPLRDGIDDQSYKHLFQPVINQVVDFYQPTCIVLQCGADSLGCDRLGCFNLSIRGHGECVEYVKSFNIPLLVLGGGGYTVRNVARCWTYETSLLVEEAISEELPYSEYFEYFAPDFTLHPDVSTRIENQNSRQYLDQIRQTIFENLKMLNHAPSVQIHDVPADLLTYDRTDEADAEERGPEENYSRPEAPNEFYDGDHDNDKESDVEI
T1 sequence (Q9Y618 395-489 partner limits assumed): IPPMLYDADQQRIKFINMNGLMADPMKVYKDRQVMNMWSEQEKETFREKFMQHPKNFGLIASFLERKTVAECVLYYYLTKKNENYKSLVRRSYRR
T3 sequence (Q13547 whole entry): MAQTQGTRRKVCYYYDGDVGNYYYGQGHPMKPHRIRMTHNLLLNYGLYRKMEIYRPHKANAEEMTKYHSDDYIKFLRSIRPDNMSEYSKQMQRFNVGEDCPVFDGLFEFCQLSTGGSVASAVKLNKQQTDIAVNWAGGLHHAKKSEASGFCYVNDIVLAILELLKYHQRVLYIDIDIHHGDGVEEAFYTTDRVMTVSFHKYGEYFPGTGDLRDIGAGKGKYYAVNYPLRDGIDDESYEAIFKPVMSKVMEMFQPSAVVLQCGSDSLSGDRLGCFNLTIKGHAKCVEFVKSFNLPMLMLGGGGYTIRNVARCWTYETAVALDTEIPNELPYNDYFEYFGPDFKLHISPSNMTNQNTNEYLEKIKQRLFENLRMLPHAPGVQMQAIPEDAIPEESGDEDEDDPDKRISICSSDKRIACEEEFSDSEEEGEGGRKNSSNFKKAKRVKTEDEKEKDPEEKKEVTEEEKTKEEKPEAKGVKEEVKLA

IC50 [1] | AUC ([2]; IV 1 mg/kg, read-out: IV AUC) | Cmax ([2]; PO 5 mg/kg oral gavage) | AUC [2, 5] | bioavailability [2] | IC50 [3] | IC50 [4] | IV clearance ([2]; IV 1 mg/kg) | half-life ([2]; IV 1 mg/kg, read-out: IV t1/2) | half-life [2, 6] | CL renal ([2]; IV 1 mg/kg) | SMILES
340 to 350 nM | 40000 to 40200 ng·h/mL | 6950 to 7000 ng/mL | 140000 ng·h/mL | 65 to 75% | 10 to 15 nM | 5 to 10 nM |  |  |  |  | CN1C(=O)Cc2cc(C(=O)Nc3cc(-c4cccs4)ccc3N)ccc21 [Compound 001]
925 to 935 nM | 6500 to 6600 ng·h/mL | 2450 to 2500 ng/mL | 22400 ng·h/mL | 65 to 75% | 45 to 50 nM | 20 to 25 nM | 0.167 to 8.33 mL/min/kg | 1 to 5 h | 5 to 10 h |  | Nc1ccc(-c2ccccc2)cc1NC(=O)c1ccc2c(c1)CC(=O)N2CC1CC1 [Compound 002]
530 to 540 nM | 10600 to 10800 ng·h/mL | 3500 to 3550 ng/mL | 61200 to 61400 ng·h/mL | 110 to 115% | 25 to 30 nM | 5 to 10 nM | 0.167 to 8.33 mL/min/kg | 15 to 20 h | 10 to 15 h |  | Nc1ccc(-c2cccs2)cc1NC(=O)c1ccc2c(c1)CC(=O)N2 [Compound 004]
1130 to 1140 nM |  |  |  |  | 70 to 75 nM | 10 to 15 nM |  |  |  |  | Nc1ccc(-c2cccs2)cc1NC(=O)c1ccc2c(c1)CC(=O)N2CCN1CCCCC1 [Compound 006]
2740 to 2750 nM |  |  |  |  | 60 to 65 nM | 25 to 30 nM |  |  |  |  | CN1C(=O)Cc2cc(C(=O)Nc3cc(-c4ccc(O)cc4)ccc3N)ccc21 [Compound 007]
> 2000 nM |  |  |  |  | > 2000 nM | 625 to 650 nM |  |  |  |  | Nc1ccc(-c2ccccc2)cc1NC(=O)c1ccc2ncn(CCN3CCOCC3)c2c1 [Compound 008]
470 to 480 nM | 10800 ng·h/mL | 4150 to 4200 ng/mL | 65200 to 65400 ng·h/mL | 115 to 125% | 40 to 45 nM | 10 to 15 nM | 0.167 to 8.33 mL/min/kg | 15 to 20 h | 10 to 15 h |  | Nc1ccc(-c2cccs2)cc1NC(=O)c1ccc2[nH]c(C3CC3)nc2c1 [Compound 009]
985 to 995 nM |  |  |  |  | 210 to 220 nM | 375 to 380 nM |  |  |  |  | Cn1cnc2ccc(C(=O)Nc3cc(-c4cccs4)ccc3N)cc21 [Compound 010]
490 to 500 nM | 2000 to 2100 ng·h/mL | 700 to 750 ng/mL | 8000 to 8100 ng·h/mL | 80 to 90% | 35 to 40 nM | 10 to 15 nM | 1.67 to 16.7 mL/min/kg | 5 to 10 h | 5 to 10 h |  | Nc1ccc(-c2cccs2)cc1NC(=O)c1ccc2c(c1)CC(=O)N2CC1CC1 [Compound 011]
875 to 885 nM | 29800 to 30000 ng·h/mL | 8200 to 8250 ng/mL | 9450 to 9550 ng·h/mL | 60 to 70% | 20 to 30 nM | 25 to 35 nM | 0.167 to 8.33 mL/min/kg | 5 to 10 h | 15 to 20 h |  | CN1C(=O)Cc2cc(C(=O)Nc3cc(-c4ccccc4)ccc3N)ccc21 [Compound 012]
3370 to 3380 nM |  |  |  |  | 2140 to 2150 nM | 4180 to 4200 nM |  |  |  |  | CN1C(=O)C(C)(C)c2cc(C(=O)Nc3cc(-c4cccs4)ccc3N)ccc21 [Compound 014]
640 to 650 nM |  |  |  |  | 30 to 40 nM | 15 to 25 nM |  |  |  |  | CN1C(=O)Cc2cc(C(=O)Nc3cc(-c4ccco4)ccc3N)ccc21 [Compound 015]
710 to 720 nM |  |  |  |  | 5 to 15 nM | 1 to 10 nM |  |  |  |  | Nc1ccc(-c2cccs2)cc1NC(=O)c1ccc2c(c1)CC(=O)N2CCCN1CCOCC1 [Compound 016]
450 to 460 nM |  |  |  |  | 10 to 20 nM | 1 to 10 nM |  |  |  |  | Nc1ccc(-c2ccccc2)cc1NC(=O)c1ccc2c(c1)ncn2CCN1CCOCC1 [Compound 017]
150 to 235 nM | 19600 to 19800 ng·h/mL | 5550 to 5600 ng/mL | 81800 to 82000 ng·h/mL | 75 to 85% | 20 to 35 nM | 1 to 10 nM | 0.167 to 8.33 mL/min/kg | 10 to 15 h | 5 to 10 h |  | Nc1ccc(-c2cccs2)cc1NC(=O)c1ccc2[nH]cnc2c1 [Compound 018]
690 to 700 nM |  |  |  |  | 35 to 40 nM | 15 to 20 nM |  |  |  |  | Cn1cnc2cc(C(=O)Nc3cc(-c4cccs4)ccc3N)ccc21 [Compound 019]
1300 to 1310 nM |  |  |  |  | 25 to 30 nM | 5 to 10 nM |  |  |  |  | Cc1nc2ccc(C(=O)Nc3cc(-c4cccs4)ccc3N)cc2[nH]1 [Compound 020]
430 to 440 nM | 3700 to 3800 ng·h/mL | 5250 to 5300 ng/mL | 21400 ng·h/mL | 110 to 120% | 15 to 20 nM | 5 to 10 nM | 1.67 to 16.7 mL/min/kg | 1 to 5 h | 1 to 5 h |  | Nc1ccc(-c2cccs2)cc1NC(=O)c1ccc2c(c1)ncn2CCN1CCOCC1 [Compound 021]
1210 to 1220 nM |  |  |  |  | 1240 to 1250 nM | 885 to 895 nM |  |  |  |  | Nc1ccc(-c2cccs2)cc1NC(=O)c1ccc2ncn(CCN3CCOCC3)c2c1 [Compound 022]
15 to 90 nM | 20 to 25 ng·h/mL |  |  |  | 5 to 10 nM | < 5 nM |  | 15 to 20 h |  | < 8.33 mL/min/kg | CN(C)CCNc1ccc2cc(C(=O)Nc3cc(-c4cccs4)ccc3N)ncc2c1 [Compound 024]
110 to 200 nM | 15 to 20 ng·h/mL |  |  |  | 15 to 20 nM | 5 to 15 nM |  | 1 to 5 h |  | < 8.33 mL/min/kg | CN(C)CCNc1ccc2cc(C(=O)Nc3cc(-c4cccs4)ccc3N)cnc2c1 [Compound 025]
85 to 95 nM |  |  |  |  | 20 to 25 nM | 25 to 30 nM |  |  |  |  | CNCCCOc1ccc2cc(C(=O)Nc3cc(-c4cccs4)ccc3N)cnc2c1 [Compound 026]
> 2000 nM |  |  |  |  | > 2000 nM | > 2000 nM |  |  |  |  | CN1CCN(c2ccc3cc(C(=O)Nc4cc(-c5nccn5C)ccc4N)cnc3c2)CC1 [Compound 027]
290 to 300 nM |  |  |  |  | 50 to 60 nM | 50 to 60 nM |  |  |  |  | Nc1ccc(-c2cccs2)cc1NC(=O)c1ccc2nc(N3CCNCC3)ccc2c1 [Compound 028]
750 to 760 nM | 20 to 25 ng·h/mL |  |  |  | 50 to 105 nM | 15 to 25 nM |  | 1 to 3 h |  | < 1.67 mL/min/kg | COCCNc1ccc2cc(C(=O)Nc3cc(-c4cccs4)ccc3N)cnc2c1 [Compound 029]
1200 to 1230 nM | 1 to 5 ng·h/mL |  |  |  | 155 to 160 nM | 50 to 55 nM |  | < 0.5 h |  | < 1.67 mL/min/kg | COCCN(C)c1ccc2cc(C(=O)Nc3cc(-c4cccs4)ccc3N)cnc2c1 [Compound 030]
240 to 250 nM | 1 to 5 ng·h/mL |  |  |  | 15 to 25 nM | < 5 nM |  | 0.5 to 1 h |  | < 3.33 mL/min/kg | CN(C)CCN(C)c1ccc2cc(C(=O)Nc3cc(-c4cccs4)ccc3N)cnc2c1 [Compound 031]
280 to 300 nM | < 15 ng·h/mL |  |  |  | 25 to 35 nM | 5 to 10 nM |  | 0.5 to 2 h |  | < 8.33 mL/min/kg | CN1CCN(c2ccc3cc(C(=O)Nc4cc(-c5cccs5)ccc4N)cnc3c2)CC1 [Compound 032]

SMILES | IC50 [1] | AUC ([2]; IV 1 mg/kg, read-out: IV AUC) | Cmax ([2]; PO 5 mg/kg oral gavage) | AUC [2, 5] | bioavailability [2] | IC50 [3] | IC50 [4] | IV clearance ([2]; IV 1 mg/kg) | half-life ([2]; IV 1 mg/kg, read-out: IV t1/2) | half-life [2, 6] | CL renal ([2]; IV 1 mg/kg)
Nc1ccc(-c2cccs2)cc1NC(=O)c1ccc2c(c1)CC(=O)N2CCN1CCOCC1 [Compound 003] | 145 to 590 nM | 1800 to 1900 ng·h/mL | 950 to 1000 ng/mL | 11400 to 11600 ng·h/mL | 130 to 140% | 5 to 25 nM | 1 to 10 nM | 1.67 to 16.7 mL/min/kg | 5 to 10 h | 5 to 10 h | 
Nc1ccc(-c2ccccc2)cc1NC(=O)c1ccc2c(c1)CC(=O)N2CCN1CCOCC1 [Compound 013] | 1040 to 1050 nM | 2700 to 2800 ng·h/mL | 1900 to 1950 ng/mL | 11800 ng·h/mL | 80 to 90% | 70 to 80 nM | 25 to 35 nM | 1.67 to 16.7 mL/min/kg | 1 to 5 h | 1 to 5 h | 
